This is an account of results in US11358950B2, “SMAC mimetics used as IAP inhibitors and use thereof” (CHIA TAI TIANQING PHARMACEUTICAL GROUP CO., LTD., priority 2017, dated 2022).

Test [1] concerns the target T1, cIAP1 BIR3 (Homo sapiens, UniProt Q13490).
T1 construct: covering amino acids 258 to 363; GST; His; purchased RBC APT-11-370; host or cells: E. coli
The experiment in a line: Binding experiment of cIAP1 BIR3 (fluorescence polarization). The settings on record: 20 nM cIAP1 BIR3, 5 nM probe ARPFAQ-K(5-FAM)-NH2, 60 min. The protocol: (§1) Buffer system for the test (a buffer for cIAP1 BIR3 or XIAP BIR3): 100 mM potassium phosphate, pH 7.5; 0.1% BSA; 0.005% Triton X-100; and 1% dimethyl sulfoxide.
(§2) Probe: ARPFAQ-K(5-FAM)-NH2.
cIAP1-BIR3-his: RBC Cat #APT-11-370, the BIR3 domain of human cIAP1 (covering amino acids 258 to 363; cIAP1 BIR3), as a GST-fusion protein expressed and purified from E. coli.
(§3) Reaction conditions: 5 nM ARPFAQ-K(5-FAM)-NH2, 20 nM cIAP1 BIR3 and 30 nM XIAP BIR3.
(§4) First, a fresh buffer for cIAP1 BIR3 or XIAP BIR3 was prepared, a cIAP1 BIR3 or XIAP BIR3 solution (2-fold diluted) was added thereto, and then a compound to be tested which had been dissolved in 100% DMSO was added into the buffer solution containing cIAP1 BIR3 or XIAP BIR3 by an acoustic technique. Thereafter, the probe (2-fold diluted) was added, and the resultant was mixed and incubated in the dark at room temperature for 60 minutes. The fluorescence polarization was measured and the mP value was calculated. Finally, the IC50 value was obtained.

Test [2] has as its target T2, XIAP BIR3 (Homo sapiens, UniProt P98170).
T2 construct: covering amino acids 255 to 356; GST; His; purchased RBC APT-11-374; host or cells: E. coli
The experiment in a line: Binding experiment of XIAP BIR3 (fluorescence polarization). The settings on record: 30 nM XIAP BIR3, 5 nM probe ARPFAQ-K(5-FAM)-NH2, 60 min. The protocol:
as §1, §2
XIAP-BIR3-his: RBC Cat #APT-11-374, the BIR3 domain of XIAP (covering amino acids 255 to 356; XIAP BIR3), as a GST-fusion protein expressed and purified from E. coli.
as §3, §4

The test system of test [3] is MDA-MB-231 cells. The experiment in a line: In-vitro cell viability test (CellTiter-Glo, 7 days). The test is classed as cell-based. Conditions: Homo sapiens, 168 h, 7 days incubation. The protocol: RPMI 1640 medium (Invitrogen-22400089); fetal bovine serum (Invitrogen-10099141); Trypsin, 0.05% (1×) with EDTA 4Na (Invitrogen-25300062); luminescent cell viability assay kit (Promega-G7573); Dulbecco's phosphate buffered saline (HyClone-SH30028.01B); and 384-well plate (Corning-6007680). Envision Multi-label Analyzer.
1. 30 μL of MDA-MB-231 cell suspension, which contained 250 MDA-MB-231 cells, was added into the wells of a 384-microwell plate.
2. 20 μL of a test compound (the test compounds were formulated at a high concentration of 10 μM, the test compounds were subjected to a 5-fold gradient dilution, and each compound was diluted to 10 concentration gradients) was added, and then the cell plate was put back into a carbon dioxide incubator to be incubated for 7 days.
3. The cell plate was kept flat at room temperature for 30 minutes.
4. 20 μL of a Promega CellTiter-Glo reagent was added into each well of the cell plate.
5. After 10 minutes, the Envision Multi-label Analyzer was used for data reading.

T2 sequence (P98170 255-356): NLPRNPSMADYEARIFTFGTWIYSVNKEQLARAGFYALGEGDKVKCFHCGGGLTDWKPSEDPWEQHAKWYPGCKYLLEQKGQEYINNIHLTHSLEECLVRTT
T1 sequence (Q13490 258-363): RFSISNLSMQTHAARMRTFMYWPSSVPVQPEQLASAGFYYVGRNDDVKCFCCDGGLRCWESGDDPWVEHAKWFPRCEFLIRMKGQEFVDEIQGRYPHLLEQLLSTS

For `CN[C@@H](C)C(=O)N[C@H](C(=O)N1C[C@@H](Oc2ccccc2)C[C@H]1Cn1cc(C(C)=O)c2cc(F)ccc21)C1CCCCC1` [Example 31], the 50% inhibitory concentration (IC50) came to 3.7 nM in test [1], 49.1 nM in test [2] and 1460 nM in test [3].
For `CN[C@@H](C)C(=O)N[C@H](C(=O)N1CCC[C@H]1Cn1cc(C(C)=O)c2c(Cl)cccc21)C1CCCCC1` [Example 4] the same measures were 2.6 nM, 97 nM and 220 nM.
For `CN[C@@H](C)C(=O)N[C@H](C(=O)N1CCC[C@H]1Cn1cc(C(C)=O)c2cc(Cl)c(Cl)cc21)C1CCCCC1` [Example 8] the same measures were 5.6 nM, 40.3 nM and 75 nM.
Take `CN[C@@H](C)C(=O)N[C@H](C(=O)N1CCC[C@H]1Cn1cc(C(=O)C(C)C)c2cc(Cl)ccc21)C1CCCCC1` [Example 24]: the IC50 in test [1] amounted to 4.1 nM; in test [2], 19.2 nM; in test [3] it was 73 nM.
With `CN[C@@H](C)C(=O)N[C@H](C(=O)N1CCC[C@H]1Cn1cc(C(N)=O)c2cc(F)ccc21)C1CCCCC1` [Example 22], the half-maximal inhibitory concentration (IC50) in test [1] came to 3 nM; in test [2] it was 42 nM; in test [3], 85 nM.
Taken in the same sequence, the figures for `CN[C@@H](C)C(=O)N[C@H](C(=O)N1CCC[C@H]1Cn1cc(C(C)=O)c2cc(Cl)cnc21)C1CCCCC1` [Example 16] were 8.4 nM, 346 nM and 109 nM.
On to `CN[C@@H](C)C(=O)N[C@H](C(=O)N1CCC[C@H]1Cn1c(C)c(C(C)=O)c2cc(Cl)ccc21)C1CCCCC1` [Example 13], for which the values for the half-inhibitory concentration (IC50) in test [1], in test [2] and in test [3] were 5 nM, 30.6 nM and 44.3 nM, respectively.
Taken in the same sequence, the figures for `CN[C@@H](C)C(=O)N[C@H](C(=O)N1CCC[C@H]1Cn1nc(C(C)=O)c2cc(Cl)ccc21)C1CCCCC1` [Example 14] were 6.2 nM, 49.9 nM and 57.7 nM.
Regarding `CN[C@@H](C)C(=O)N[C@H](C(=O)N1CCC[C@H]1Cn1cc(C(C)=O)c2cc(OC(F)(F)F)ccc21)C1CCCCC1` [Example 11], the IC50 was found to be 5.2 nM in test [1], 139 nM in test [2] and 74.8 nM in test [3].
Consider `CN[C@@H](C)C(=O)N[C@H](C(=O)N1CCC[C@H]1Cn1cc(C(=O)N(C)C)c2cc(Cl)ccc21)C1CCCCC1` [Example 23], for which the half-maximal inhibitory concentration (IC50) in test [1] stood at 4.6 nM; in test [2], 21.3 nM; in test [3], 45.2 nM.
For `CN[C@@H](C)C(=O)N[C@H](C(=O)N1CCC[C@H]1Cn1cc(N2CCN(C)C2=O)c2cc(Cl)ccc21)C1CCCCC1` [Example 29] the same measures were 6.1 nM, 31.4 nM and 134 nM.
For `CN[C@@H](C)C(=O)N[C@H](C(=O)N1CCC[C@H]1Cn1cc(C(C)=O)c2ccc(Cl)cc21)C1CCCCC1` [Example 5] the same measures were 2.6 nM, 95.9 nM and 75 nM.
On to `CN[C@@H](C)C(=O)N[C@H](C(=O)N1CCC[C@H]1Cn1cc(C#N)c2cc(F)ccc21)C1CCCCC1` [Example 17], for which the 50% inhibitory concentration (IC50) in test [1] was 1.9 nM; in test [2], 80.7 nM; in test [3] it was 79 nM.
As to `CN[C@@H](C)C(=O)N[C@H](C(=O)N1CCC[C@H]1Cn1cc(-c2ccccc2C)c2cc(F)ccc21)C1CCCCC1` [Example 25], the IC50 was found to be 6.8 nM in test [1], 208 nM in test [2] and 1150 nM in test [3].
`CN[C@@H](C)C(=O)N[C@H](C(=O)N1CCC[C@H]1Cn1cc(N2CCCC2=O)c2cc(Cl)ccc21)C1CCCCC1` [Example 28]: the IC50 was 5.2 nM in test [1], 27.3 nM in test [2] and 36.7 nM in test [3].
Taken in the same sequence, the figures for `CN[C@@H](C)C(=O)N[C@H](C(=O)N1CCC[C@H]1Cn1cc(C(C)=O)c2c(F)c(Cl)ccc21)C1CCCCC1` [Example 10] were 4.5 nM, 27.2 nM and 32.4 nM.
